Assay results published in patent US12240844B2 (Voronoi, Inc., priority 2019, dated 2025).

Key:
IL-6 = IL-6 secretion inhibition in LPS-treated THP-1 cells (ELISA); assay type: cell-based; conditions: Homo sapiens, compound 0.5 μM, LPS 500 ng/ml, 24 hours, read-out: THP1/IL6 (% inhib)
Summary of the method: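 Human monocytic THP-1 cells were pre-cultured 16 h at 37° C., then treated with compound at 0.5 μM final, followed by LPS at 500 ng/ml final. After 24 h, IL-6 and TNF-α in culture supernatant were quantified by ELISA with absorbance read at 450 nm.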

SHP-77 = SHP-77 cancer cell proliferation inhibition (Cell Titer-Glo); assay type: cell-based; conditions: Homo sapiens, SHP77, SHP-77 small cell lung cancer cell line, 72 hours
Summary of the method: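 GI50 comes from CellTiter-Glo luminescence, read 10 min after reagent addition at RT, following 72 h compound treatment. Eleven concentrations were used (⅓ steps, highest 10 μM final) on 2000 cells/well. MDA-MB-231 and MDA-MB-468 were grown in DMEM, SHP-77 in RPMI.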

[1] = molecular target: T1, LRRK2, LRRK2 (G2019S), DYRK1, CLK1 and TTK kinases (Homo sapiens, UniProt Q13627); test: Enzyme IC50 by Kinase HotSpot service (Reaction Biology Corporation), values marked with *; assay type: biochemical; conditions: DYRK1, ATP 10 uM
T1 construct: other: DYRK1; Kinase HotSpot service (Reaction Biology), ATP 10 uM
Summary of the method: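 Radiometric-service kinase assays (Reaction Biology HotSpot protocol) run at 10 uM ATP under uniform conditions. Compounds tested as 3-fold dilution series from a top concentration of […] to give IC50.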

| GI50 (SHP-77) | IC50 [1] | Structure (SMILES) | inhibition at 0.5 µM (IL-6) |
| --- | --- | --- | --- |
| 0.051 to 0.1 µM |  | CNc1cc(Nc2ccc(S(=O)(=O)N3CCC(N4C[C@H]5C[C@@H]4CO5)CC3)cc2OC)nc2[nH]cc(C(F)(F)F)c12 [Example 243, N^6-(4-((4-((1R,4R)-2-oxa-5-azabicyclo[2.2.1]heptan-5-yl)piperidin-1-yl)sulfonyl)-2-methoxyphenyl)-N^4-methyl-3-(trifluoromethyl)-1H-pyrrolo[2,3-b]pyridine-4,6-diamine] | 32.3% |
| 0.301 to 1 µM |  | CCNc1cc(Nc2ccc(C(=O)N3C[C@@H]4C[C@H]3CO4)c3c2OCCO3)nc2[nH]cc(C(F)(F)F)c12 [Example 44, ((1S,4S)-2-oxa-5-azabicyclo[2.2.1]heptan-5-yl)(8-((4-(ethylamino)-3-(trifluoromethyl)-1H-pyrrolo[2,3-b]pyridin-6-yl)amino)-2,3-dihydrobenzo[b] [1,4]dioxin-5-yl)methanone] | 47.9% |
|  | 0.101 to 0.3 µM | O=C(c1ccc(Nc2cc(C3CC3)c3c(C(F)(F)F)c[nH]c3n2)c2c1OCO2)N1CCC(N2CCOCC2)CC1 [Example 49, (7-((4-cyclopropyl-3-(trifluoromethyl)-1H-pyrrolo[2,3-b]pyridin-6-yl)amino)benzo[d][1,3]dioxol-4-yl)(4-morpholinopiperidin-1-yl)methanone] |  |
| 0.301 to 1 µM |  | CCNc1cc(Nc2cc(F)c(S(=O)(=O)N3CCC(N4CCOCC4)CC3)cc2OC)nc2[nH]cc(C(F)(F)F)c12 [Example 266, N^4-ethyl-N^6-(5-fluoro-2-methoxy-4-((4-morpholinopiperidin-1-yl)sulfonyl)phenyl)-3-(trifluoromethyl)-1H-pyrrolo[2,3-b]pyridine-4,6-diamine] |  |
| 0.301 to 1 µM |  | COCCNc1cc(Nc2ccc(S(=O)(=O)N3CCC(N4CCOCC4)CC3)c3c2OCCO3)nc2[nH]cc(C(F)(F)F)c12 [Example 97, N^4-(2-methoxyethyl)-N^6-(8-((4-morpholonopiperidin-1-yl)sulfonyl)-2,3-dihydrobenzo[b] [1,4]dioxin-5-yl)-3-(trifluoromethyl)-1H-pyrrolo[2,3-b]pyridine-4,6-diamine] | 17% |
|  | < 0.1 µM | N#Cc1c[nH]c2nc(Nc3ccc(C(=O)N4CCC(N5CCOCC5)CC4)c4c3OCCO4)cc(C3CC3)c12 [Example 226, 4-cyclopropyl-6-((8-(4-morpholinopiperidine-1-carbonyl)-2,3-dihydrobenzo[b] [1,4]dioxin-5-yl)amino)-1H-pyrrolo[2,3-b]pyridine-3-carbonitrile] |  |
|  | < 0.1 µM | COc1cc(P2(=O)CCN(C(C)=O)CC2)ccc1Nc1cc(C2CC2)c2c(C(F)(F)F)c[nH]c2n1 [Example 48, 1-(4-(4-((4-cyclopropyl-3-(trifluoromethyl)-1H-pyrrolo[2,3-b]pyridin-6-yl)amino)-3-methoxyphenyl)-4-oxido-1,4-azaphosphinan-1-yl)ethan-1-one] |  |
|  |  | CCNc1cc(Nc2ccc(C(=O)N3CCN(C4COC4)CC3)c3c2OCCO3)nc2[nH]cc(C(F)(F)F)c12 [Example 173, (8-((4-(ethylamino)-3-(trifluoromethyl)-1H-pyrrolo[2,3-b]pyridin-6-yl)amino)-2,3-dihydrobenzo[b] [1,4]dioxin-5-yl)(4-(oxetan-3-yl)piperazin-1-yl)methanone] | 9.1% |
| 0.301 to 1 µM |  | COc1cc(S(=O)(=O)N2CCC(N3CCOCC3)CC2)ccc1Nc1cc(NCCS(C)(=O)=O)c2c(C(F)(F)F)c[nH]c2n1 [Example 194, N^6-(2-methoxy-4-((4-morpholinopiperidin-1-yl)sulfonyl)phenyl)-N^4-(2-(methylsulfonyl)ethyl)-3-(trifluoromethyl)-1H-pyrrolo[2,3-b]pyridine-4,6-diamine] | 6.3% |
|  | 0.101 to 0.3 µM | N#Cc1c[nH]c2nc(Nc3ccc(C(=O)N4CCOCC4)c4c3OCCO4)cc(C3CC3)c12 [Example 225, 4-cyclopropyl-6-((8-(morpholine-4-carbonyl)-2,3-dihydrobenzo[b] [1,4]dioxin-5-yl)amino)-1H-pyrrolo[2,3-b]pyridine-3-carbonitrile] |  |
|  |  | CNc1cc(Nc2ccc(C(=O)N3CCC(N4CCOCC4)CC3)c3c2OCC3)nc2[nH]cc(C(F)(F)F)c12 [Example 234, (7-((4-(methylamino)-3-(trifluoromethyl)-1H-pyrrolo[2,3-b]pyridin-6-yl)amino)-2,3-dihydrobenzofuran-4-yl)(4-morpholinopiperidin-1-yl)methanone] | 50.9% |
|  |  | CCNc1cc(Nc2ccc(C(=O)N3CCC(N4C[C@H]5C[C@@H]4CO5)CC3)c3c2OCC3)nc2[nH]cc(C(F)(F)F)c12 [Example 244, (4-((1R,4R)-2-oxa-5-azabicyclo[2.2.1]heptan-5-yl)piperidin-1-yl)(7-((4-(ethylamino)-3-(trifluoromethyl)-1H-pyrrolo[2,3-b]pyridin-6-yl)amino)-2,3-dihydrobenzofuran-4-yl)methanone] | 40.1% |
|  |  | CCNc1cc(Nc2ccc(P3(=O)CCN(C4CCOCC4)CC3)cc2OC)nc2[nH]cc(C(F)(F)F)c12 [Example 94, 4-(4-((4-(ethylamino)-3-(trifluoromethyl)-1H-pyrrolo[2,3-b]pyridin-6-yl)amino)-3-methoxyphenyl)-1-(tetrahydro-2H-pyran-4-yl)-1,4-azaphosphinane 4-oxide] | 21% |
|  |  | CCNc1cc(Nc2ccc(C(=O)N3CCN(C4COC4)CC3)c3c2OCC3)nc2[nH]cc(C(F)(F)F)c12 [Example 248, (7-((4-(ethylamino)-3-(trifluoromethyl)-1H-pyrrolo[2,3-b]pyridin-6-yl)amino)-2,3-dihydrobenzofuran-4-yl)(4-(oxetan-3-yl)piperazin-1-yl)methanone] | 48.4% |
| 0.051 to 0.1 µM | < 0.1 µM | COc1cc(S(=O)(=O)N2CCC(N3CCOCC3)CC2)ccc1Nc1cc(C2CC2)c2c(C#N)c[nH]c2n1 [Example 228, 4-cyclopropyl-6-((2-methoxy-4-((4-morpholinopiperidin-1-yl)sulfonyl)phenyl)amino)-1H-pyrrolo[2,3-b]pyridine-3-carbonitrile] |  |
| 0.301 to 1 µM |  | CNc1cc(Nc2ccc(S(=O)(=O)N3CCC(N4CCOCC4)CC3)c3c2OCCO3)nc2[nH]cc(C(F)(F)F)c12 [Example 233, N^4-methyl-N^6-(8-((4-morpholinopiperidin-1-yl)sulfonyl)-2,3-dihydrobenzo [b] [1,4]dioxin-5-yl)-3-(trifluoromethyl)-1H-pyrrolo[2,3-b]pyridine-4,6-diamine] | 4.3% |
| 0.301 to 1 µM |  | COc1cc(S(=O)(=O)N2CCOCC2)ccc1Nc1cc(C2CC2)c2c(C#N)c[nH]c2n1 [Example 227, 4-cyclopropyl-6-((2-methoxy-4-(morpholinosulfonyl)phenyl)amino)-1H-pyrrolo[2,3-b]pyridine-3-carbonitrile] |  |
|  | < 0.1 µM | O=C(c1ccc(Nc2cc(C3CC3)c3c(C(F)(F)F)c[nH]c3n2)c2c1CCO2)N1CCC(N2CCOCC2)CC1 [Example 93, (7-((4-cyclopropyl-3-(trifluoromethyl)-1H-pyrrolo[2,3-b]pyridin-6-yl)amino)-2,3-dihydrobenzofuran-4-yl)(4-morpholinopiperidin-1-yl)mthanone] |  |
| 0.301 to 1 µM | 0.101 to 0.3 µM | COc1cc(S(=O)(=O)N2CCOCC2)ccc1Nc1cc(C2CC2)c2c(C(F)(F)F)c[nH]c2n1 [Example 222, 4-cyclopropyl-N-(2-methoxy-4-(morpholinosulfonyl)phenyl)-3-(trifluoromethyl)-1H-pyrrolo[2,3-b]pyridin-6-amine] |  |
|  | < 0.1 µM | O=C(c1ccc(Nc2cc(C3CC3)c3c(C(F)(F)F)c[nH]c3n2)c2c1CCO2)N1CCOCC1 [Example 91, (7-((4-cyclopropyl-3-(trifluoromethyl)-1H-pyrrolo[2,3-b]pyridin-6-yl)amino)-2,3-dihydrobenzofuran-4-yl)(morpholino) methanone] | 52.5% |
|  |  | CCNc1cc(Nc2ccc(C(=O)N3CCC(N4CCOCC4)CC3)c3c2OCC3)nc2[nH]cc(C(F)(F)F)c12 [Example 90, (7-((4-(ethylamino)-3-(trifluoromethyl)-1H-pyrrolo[2,3-b]pyridin-6-yl)amino)-2,3-dihydrobenzofuran-4-yl)(4-morpholinopiperidin-1-yl)methanone] | 12.2% |
| 0.301 to 1 µM |  | CCNc1cc(Nc2ccc(P3(=O)CCN(C(C)=O)CC3)cc2OC)nc2[nH]cc(C(F)(F)F)c12 [Example 42, 1-(4-(4-((4-(ethylamino)-3-(trifluoromethyl)-1H-pyrrolo[2,3-b]pyridin-6-yl)amino)-3-methoxyphenyl)-4-oxido-1,4-azaphosphinan-1-yl)ethan-1-one] | 48.3% |
